The record followed here is patent publication US11786132B2, “Systems and methods for predicting arousal to consciousness during general anesthesia and sedation” (The General Hospital Corporation, priority 2011, dated 2023).

Several values for one entry are separate records, joined by “and”; a condition that tells them apart may be missing. Identical values can stand only once. Like-named read-outs stand apart in the source and are kept apart here.

Test [1] concerns healthy volunteers. The procedure: (§1) These studies were approved by the Human Research Committee at the Massachusetts General Hospital. All subjects provided informed consent and were American Society of Anesthesiology Physical Status I with Mallampati Class I airway anatomy. […] We administered a urine pregnancy test for each female subject to confirm that they were not pregnant. Before the start of the study, we required subjects to take nothing by mouth for at least 8 hours. […] We maintained each target effect-site concentration level for 14 min. […] Volunteers were instructed to close their eyes throughout the study to avoid eye-blink artifacts in the electroencephalogram. Volunteers were presented with auditory stimuli during the study and asked to respond by button presses to assess the level of conscious behavior. […] Verbal stimuli consisted either of the subject's name or a word randomized with an equal number of name or word stimuli at each level. The click train was delivered binaurally, with 40-Hz clicks in the left ear and 84-Hz clicks in the right ear. Subjects were instructed to press one button if they heard their name and to press the other button if they heard any other stimulus. Stimuli were recorded at a sampling rate of 44.1 kHz and were presented using Presentation software (Neurobehavioral Systems, Inc., Berkeley, Calif.) with ear-insert headphones (ER2; Etymotic Research, Elk Grove Village, Ill.) at ˜81 decibels peak sound pressure level. Button-press stimuli were recorded using a custom-built computer mouse with straps fitted to hold the first and second fingers in place over the mouse buttons. The mouse was also lightly strapped to the subject's hand using tape and an arterial line board to ensure that responses could be recorded accurately.
(§2) Electroencephalogram data segments were selected based on the behavioral response.
(§3) For each volunteer subject, TM electroencephalogram epochs were chosen that occurred within the first 2-minutes of the onset of this pattern. […] For each volunteer subject, PM electroencephalogram epochs were chosen that occurred within the first 2-minutes of the onset of this pattern.

Test [2] deals with healthy volunteers. On the procedure:
as §1
(§4) An anti-aliasing filter was applied and the EEG data was downsampled to 250 Hz before analysis. EEG signals were re-montaged to a nearest-neighbor Laplacian reference, using distances along the scalp surface to weigh neighboring electrode contributions.
(§5) First, 2-minute EEG segments were selected from all subjects during the awake, eyes closed baseline. Eye closure facilitates distinguishing between normal awake, eyes-closed occipital alpha oscillations and the frontal alpha oscillations associated with anesthesia induced altered arousal.
as §2, §3
The power spectral density, also referred to as the power spectrum or spectrum, quantifies the frequency distribution of energy or power within a signal. The spectrogram is a time-varying version of the spectrum. […] In these spectrograms, frequencies are arranged along the y-axis, and time along the x-axis, and power is indicated by color on a decibel (dB) scale. […] Spectra and spectrograms were computed using the multitaper method, implemented in the Chronux toolbox.
Group-level spectrograms were computed by taking the median across volunteers.
This is another data set of the same source.

Test [3] concerns healthy volunteers. On the procedure: as §1, §4, §5, §2, §3
The coherence quantifies the degree of correlation between two signals at a given frequency. […] The coherence Cxy(f) function between two signals x and y is defined as:
[formula] where Sxy(f) is the cross-spectrum between the signals x(t) and y(t), Sxx(f) is the power spectrum of the signal x(t) and Syy(f) is the power spectrum of the signal y(t). Similar to the spectrum and spectrogram, the coherence can be estimated as a time-varying quantity called the coherogram.
The source holds these as a separate data set.

Test [4] relates to patients undergoing light sedation with dexmedetomidine, sedation with propofol and general anesthesia with propofol. Particulars: intraoperative frontal EEG.
A short description of test [5]: Plethysmography and blood gas experiments. Particulars: in vivo. From the text: For example, in accordance with one aspect of the present disclosure, methylphenidate (MPH) can be used as an inhibitor of dopamine and norepinephrine reuptake transporters and actively induces emergence from isoflurane general anesthesia. MPH can be used to restore consciousness, induce electroencephalogram changes consistent with arousal, and increase respiratory drive. The behavioral and respiratory effects induced by methylphenidate can be inhibited by droperidol, supporting the evidence that methylphenidate induces arousal by activating a dopaminergic arousal pathway.

The subject of test [6] is patients undergoing general anesthesia. Kind of test: Intra-operative EEG during general anesthesia with sevoflurane as primary maintenance agent. It counts as in vivo, human. On the procedure: In addition, to study the relationship between EEG dynamics in context of potential neural circuit mechanisms of an anesthetic vapor, intra-operative EEG were recorded from patients undergoing general anesthesia with sevoflurane as the primary maintenance agent, which is an ether derivative commonly used to maintain GA. […] Connectivity analysis was then performed on the EEG dynamics postulated to be involved in anesthesia-induce depression in consciousness. […] These observed similarities are consistent with present understanding of how EEG features relate to anesthesia-induced depression of consciousness, and provide a framework for further experimental studies on the neural circuit mechanisms of general anesthesia.

Where [7] appears, read: dexmedetomidine-induced unconsciousness.
[8] abbreviates: Propofol-induced unconsciousness (PM) epoch.
Setting [9] is: Propofol-induced unconsciousness (TM) epoch.
Where [10] appears, read: propofol-induced unconsciousness (PM).
Where [11] appears, read: propofol-induced unconsciousness (TM).

In the case of `Cc1cccc([C@H](C)c2cnc[nH]2)c1C` [dexmedetomidine], in test [1] (Dexmedetomidine-induced unconsciousness epoch), the “Behavioral State” value is listed as “Sedation”. In test [2] (setting [7]), this molecule showed a slow oscillation power of −0.4 dB. In addition, the “frequency range where EEG power was larger than propofol-induced unconsciousness (TM)” value in test [2] (dexmedetomidine-induced unconsciousness vs propofol TM, P<0.0005, TGTS) is 0.7-10 Hz. Further, the “frequency range of increased power in spectrogram compared to baseline” value in test [2] (dexmedetomidine-induced unconsciousness, FIGS. 9A, 9B) is recorded as 2-15 Hz. Also, the “frequency range where EEG power was lower than baseline” value in test [2] (dexmedetomidine-induced unconsciousness, beta/gamma, P<0.001, TGTS) is given as 21.2-40 Hz. Besides, in test [2] (dexmedetomidine-induced unconsciousness, mean±std), the “dex-spindle oscillation peak frequency (EEG power)” value was 12.9 Hz and ~13 Hz. Further, in test [3] (setting [7]), the “coherence peak frequency (dex-spindle)” value is 13.4 Hz and ~13 Hz; the “peak coherence (dex-spindle)” value worked out at 0.78±0.08; the “slow oscillation coherence compared to the awake-state” value is on record as “non-significant decrease”. The “frequency range where coherence was significantly larger than propofol-induced unconsciousness (PM)” value in test [3] (dexmedetomidine-induced unconsciousness vs propofol PM, FIG. 15B, P<0.0005, TGTC) was 12.9-15.4 Hz. Besides, the “frequency range of decrease in coherence on coherogram” value in test [3] (dexmedetomidine-induced unconsciousness, FIG. 12B) is 0.1-1 Hz. The “frequency range of significant differences in coherence vs baseline” value in test [3] (dexmedetomidine-induced unconsciousness, FIG. 12C, P<0.001, TGTC) is 2.4-18.8 Hz. Also, the “frequency range of increase in coherence on coherogram” value in test [3] (dexmedetomidine-induced unconsciousness, FIGS. 12A, 12B) is recorded as 1-15 Hz. Moreover, in test [4], the “coherence of 0.1-1 Hz slow oscillations compared to propofol slow oscillations” value was “greater coherence” and the “coherence of 8-12 Hz oscillations compared to propofol induced oscillations” value was “less coherence”.
Turning to `COC(=O)C(c1ccccc1)C1CCCCN1` (stereo not drawn) [methylphenidate], the minute ventilation entry in test [5] is on record as “increases minute ventilation”.
For the molecule `CC(C)c1cccc(C(C)C)c1O` [propofol], in test [1] (setting [8]), the “Behavioral State” value is “General” and the “Probability of Response to Verbal Stimuli (%) mean (±SD)” value came out at 0%. For the same molecule, in test [1] (setting [9]), the “Behavioral State” value was “Sedation” and the “Probability of Response to Verbal Stimuli (%) mean (±SD)” value is reported as 91.5 (15.4) %. In test [2] (PM pattern), the “propofol effect site concentrations over which the signature is stably maintained” value fell in the range of 3 to 5 µg/mL. Also, the “frequency range where PM oscillations were significantly larger than TM” value in test [2] (propofol PM vs TM, FIG. 10F, P<0.0003, TGTS) was 0.1-13.4 Hz. In addition, in test [2] (setting [10]), the “alpha oscillation peak frequency (EEG power)” value worked out at 10.8 Hz, the “frontal alpha oscillation peak power” value was 1.1 dB and the slow oscillation power is reported as 13.2 dB. For the same molecule, the “amplitude of slow oscillations, PM relative to TM and the baseline state” value in test [2] (propofol-induced unconsciousness (PM) vs (TM)) is “approximately 6 fold”. The “amplitude of alpha oscillations, propofol PM relative to dexmedetomidine spindle oscillations” value in test [2] (propofol-induced unconsciousness (PM) vs dexmedetomidine) was “approximately 3.9 fold”. Further, the “frequency range where EEG power was significantly larger than dexmedetomidine-induced unconsciousness” value in test [2] (propofol-induced unconsciousness (PM) vs dexmedetomidine, P<0.0005, TGTS) is on record as 0.1-40 Hz. In addition, the “frequency range where EEG power was significantly larger than baseline” value in test [2] (propofol-induced unconsciousness (PM), FIG. 10E, P<0.0003, TGTS) is 0.1-40 Hz. Further, in test [2] (setting [11]), the “broad-band frequency range of increased power in spectrogram” value is 1-25 Hz and the slow oscillation power is recorded as −2.5 dB. Moreover, the “frequency range where EEG power was larger than dexmedetomidine-induced unconsciousness” value in test [2] (propofol-induced unconsciousness (TM) vs dexmedetomidine, P<0.0005, TGTS) is 14.9-40 Hz. In addition, in test [2] (trough max (TM) pattern), the “propofol effect site concentrations over which the signature is stably maintained” value lay within 1 to 2 µg/mL. Also, in test [2] (trough-max pattern), the “time after loss of consciousness to which the trough-max pattern extends” value is recorded as around 10 min and the “time before loss of consciousness at which the trough-max pattern begins” value is listed as around 20 min. In addition, in test [3] (setting [10]), the “alpha oscillation coherence peak frequency” value is given as 10.8 Hz, the “alpha oscillation peak coherence” value was 0.89±0.05 and the “slow oscillation coherence compared to baseline” value was “non-significant decrease”. Moreover, the “frequency range of decrease in coherence on coherogram” value in test [3] (propofol-induced unconsciousness (PM), FIG. 13C) is 0.1-1 Hz. Besides, the “frequency range of significant increase in coherence vs baseline” value in test [3] (propofol-induced unconsciousness (PM), FIG. 13E, P<0.0003, TGTC) is 3.9-15.1 Hz. Moreover, the “alpha oscillation coherence peak frequency” value in test [3] (propofol-induced unconsciousness (PM), listed as Propofol) is recorded as around 10 Hz. Besides, the “broad frequency range of increase in coherence on coherogram” value in test [3] (setting [11]) is given as 1-25 Hz. Moreover, the “frequency range where coherence was larger than dexmedetomidine-induced unconsciousness” value in test [3] (propofol-induced unconsciousness (TM) vs dexmedetomidine, FIG. 15A, P<0.0005, TGTC) is listed as 17.3-25.9 Hz. Besides, the “frequency ranges where oscillations were coherent vs baseline” value in test [3] (propofol-induced unconsciousness (TM), FIG. 13D, P<0.0003, TGTC) is 10.7-15.4 Hz and 17.3-25.9 Hz.
`FCOC(C(F)(F)F)C(F)(F)F` [sevoflurane]: the “macroscopic EEG dynamics during GA induced unconsciousness” value in test [6] was “closely resemble those of propofol”.
